Experimental data from ChEMBL document CHEMBL3085644, “Structure elucidation and antimalarial activity of apicidin F: an apicidin-like compound produced by Fusarium fujikuroi” (J Nat Prod, 2013).
Where a SMILES comes first, the peptide text is derived from it. [ ]: non-standard residue; d: D form. Trp(1-OMe) = COn1cc(C[C@H](N)C(=O)O)c2ccccc21; Asu = N[C@@H](CCCCCC(=O)O)C(=O)O; dPip = O=C(O)[C@H]1CCCCN1

Tests used:
Plasmodium falciparum [1] = test: Antiplasmodial activity against chloroquine-resistant Plasmodium falciparum Dd2 assessed as parasite growth inhibition after 48 hrs by light microscopic analysis; type: functional, organism-based; conditions: Dd2, 48 h
Plasmodium falciparum [2] = test: Antiplasmodial activity against Plasmodium falciparum NF54 assessed as [3H]-hypoxanthine incorporation after 48 hrs by liquid scintillation counting analysis; type: functional, organism-based

IC50 (Plasmodium falciparum [2]) [nM]	Compound	IC50 (Plasmodium falciparum [1]) [nM]
	CCC(=O)CCCCC[C@@H]1NC(=O)[C@H]2CCCCN2C(=O)[C@H]([C@@H](C)CC)NC(=O)[C@H](Cc2cn(OC)c3ccccc23)NC1=O [APICIDIN]	200
670	COn1cc(C[C@@H]2NC(=O)[C@H](CCCCCC(=O)O)NC(=O)[C@H]3CCCCN3C(=O)[C@H](Cc3ccccc3)NC2=O)c2ccccc21 (cyclo([Asu][Trp(1-OMe)]F[dPip]))	
